Measurements from PMC7074965, “Discovery of Two Brominated Oxindole Alkaloids as Staphylococcal DNA Gyrase and Pyruvate Kinase Inhibitors via Inverse Virtual Screening” (Microorganisms, 2020).
In brackets after ≈: the same amount, converted by molar mass. Like-named read-outs stand apart in the source and are kept apart here.

Legend:
[1] = system: Bacillus subtilis ATCC5230; test: MIC determination, twofold serial dilution; type: cell-based; conditions: read-out: MIC (B. subtilis)
Experimental: (§1) All the bacterial strains were maintained at −80 °C in 15% glycerol nutrient broth (Oxoid, Milan, Italy).
(§2) The twofold serial dilution approach was applied to determine the MICs of each compound. Each tested compound was dissolved in DMSO (Sigma, Milan, Italy) to prepare the test solutions. Many colonies of each tested bacterial strain were inoculated in 10 mL of sterilized Mueller–Hinton broth (MHB) (Oxoid) and incubated at 37 °C for 18–24 h. […] All data are reported as the mean of three independent experiments.

[2] = system: Escherichia coli ATCC 259228; test: MIC determination, twofold serial dilution; type: cell-based; conditions: read-out: MIC (E. coli)
Experimental: as §1, §2

[3] = system: MRSA ATCC33591; test: MIC determination, twofold serial dilution; type: cell-based; conditions: Staphylococcus aureus, read-out: MIC (MRSA)
Experimental: as §1, §2

[4] = system: Pseudomonas aeruginosa ATCC9027; test: MIC determination, twofold serial dilution; type: cell-based; conditions: read-out: MIC (P. aeruginosa)
Experimental: as §1, §2

[5] = system: Pim-1 kinase; design: method as in PMID 30061488, PMID 30525020, PMID 31395834; conditions: previously reported; cited from earlier work
[6] = Bacillus subtilis, ATCC5230, 24 h incubation, mean of three experiments
[7] = Escherichia coli, ATCC259228, 24 h incubation, mean of three experiments
[8] = 24 h incubation, mean of three experiments
[9] = Pseudomonas aeruginosa, ATCC9027, 24 h incubation, mean of three experiments
[10] = Bacillus subtilis, ATCC5230, 24 h
[11] = Escherichia coli, ATCC259228, 24 h
[12] = Pseudomonas aeruginosa, ATCC9027, 24 h

Compound | MIC [1, 6] [µM] | MIC [2, 7] [µM] | MIC [3, 8] [µM] | MIC [4, 9] [µM] | MIC [1, 8] [µM] | MIC [2, 8] [µM] | MIC [4, 8] [µM] | further results
O=C1Nc2ccccc2C1(c1c[nH]c2ccccc12)c1c[nH]c2ccccc12 [Compound 3, Trisindoline] | 16 (≈ 5.81 µg/mL) | > 256 | 32 (≈ 11.6 µg/mL) | > 256 | – | – | – | –
CC(c1c[nH]c2ccccc12)c1c[nH]c2ccccc12 [Compound 4, Vibrindole] | 64 (≈ 16.7 µg/mL) | 128 (≈ 33.3 µg/mL) | 64 (≈ 16.7 µg/mL) | > 256 | – | – | – | –
CC(=O)C[C@]1(O)C(=O)Nc2cc(Br)ccc21 [Compound 5, Convolutamidine F] | 128 (≈ 36.4 µg/mL) | > 256 | 128 (≈ 36.4 µg/mL) | > 256 | – | – | – | Pim-1 kinase inhibition [5]: potent cytotoxic Pim-1 kinase inhibitors
O=C1Nc2cc(Br)ccc2[C@@]1(O)c1c[nH]c2ccccc12 [Compound 6, (S) 6-bromo-3-hydroxy-3-(1H-indol-3-yl) indolin-2-one] | – | – | – | – | – | – | – | MIC [1, 10]: 128 µM (≈ 43.9 µg/mL); MIC [2, 11]: > 256 µM; MIC ([3]; 24 h): > 256 µM; MIC [4, 12]: > 256 µM
COc1ccc(/C=C/C(=O)/C=C2/C(=O)Nc3cc(Br)ccc32)cc1 [Compound 7, Saccharomon osp orine A] | > 256 | > 256 | > 256 | > 256 | – | – | – | Pim-1 kinase inhibition [5]: potent cytotoxic Pim-1 kinase inhibitors
O=C1Nc2ccccc2C1=O [Compound 8, Isatine] | – | – | – | – | > 256 | > 256 | > 256 | –
O=C1Nc2ccc(Br)cc2C1=O [Compound 9, 5-Bromoisatine] | 128 (≈ 28.9 µg/mL) | > 256 | 128 (≈ 28.9 µg/mL) | > 256 | – | – | – | –
O=C1Nc2cc(Br)ccc2C1=O [Compound 10, 6-Bromoisatine] | 128 (≈ 28.9 µg/mL) | 128 (≈ 28.9 µg/mL) | 128 (≈ 28.9 µg/mL) | > 256 | – | – | – | –
CC(=O)/C=C1/C(=O)Nc2ccc(Br)cc21 [Compound 11, (E)-5-bromo-3-(2-oxopropylidene)indolin-2-one] | – | – | – | – | > 256 | > 256 | > 256 | –
Cc1c[nH]c2ccccc12 [Compound 12, Skatole] | – | – | – | – | > 256 | > 256 | > 256 | –
O=Cc1c[nH]c2ccccc12 [Compound 13, Indole-3-carbaldehyde] | > 256 | > 256 | > 256 | > 256 | – | – | – | –
OCCc1c[nH]c2ccccc12 [Compound 14, Tryptophol] | > 256 | > 256 | > 256 | > 256 | – | – | – | –
O=C(O)C(=O)Cc1c[nH]c2ccccc12 [Compound 15, Indole-3-pyruvic acid] | > 256 | > 256 | > 256 | > 256 | – | – | – | –
COc1ccc(C(=O)O)cc1 [Compound 16, p-Anisic acid] | > 256 | > 256 | > 256 | > 256 | – | – | – | –
COC(=O)c1ccc(OC)cc1 [Compound 17, p-Anisic acid methyl ester] | – | – | – | – | > 256 | > 256 | > 256 | –
COc1cc(C(=O)O)cc(OC)c1O [Compound 18, Syringic acid] | > 256 | > 256 | > 256 | > 256 | – | – | – | –
Nc1ccccc1C(=O)O [Compound 19, Anthranilic acid] | – | – | – | – | – | – | – | MIC [1, 10]: > 256 µM; MIC [2, 11]: > 256 µM; MIC ([3]; 24 h): > 256 µM; MIC [4, 12]: > 256 µM

Compound | MIC [1, 6] [µM] | MIC [2, 7] [µM] | MIC [3, 8] [µM] | MIC [4, 9] [µM] | MIC [1, 8] [µM] | MIC [2, 8] [µM] | MIC [4, 8] [µM] | further results
O=Cc1ccc(O)cc1 [Compound 20, p-Hydroxy benzaldehyde] | – | – | – | – | > 256 | > 256 | > 256 | –
O=Cc1cc(O)ccc1O [Compound 21, Gentisaldehyde] | – | – | – | – | > 256 | > 256 | > 256 | –
COc1ccc(C(=O)OCc2ccccc2)cc1 [Compound 22, Benzyl anisate] | – | – | – | – | > 256 | > 256 | > 256 | –
COc1cc(C(C)=O)cc(OC)c1O [Compound 23, Acetosyringone] | > 256 | > 256 | > 256 | > 256 | – | – | – | –
COc1cc(/C=C/C(=O)O)cc(OC)c1O [Compound 24, Sinapic acid] | – | – | – | – | > 256 | > 256 | > 256 | –
O=C(O)Cc1ccccc1 [Compound 25, Phenyl acetic acid] | – | – | – | – | – | – | – | MIC [1, 10]: > 256 µM; MIC [2, 11]: > 256 µM; MIC ([3]; 24 h): > 256 µM; MIC [4, 12]: > 256 µM
O=C(O)c1ccc2ccccc2c1O [Compound 26, 1-Hydroxy-2-naphthoic acid] | > 256 | > 256 | > 256 | > 256 | – | – | – | –
O=C(O)c1cc(O)c2ccccc2c1O [Compound 27, 1,4 Dihydroxy-2-naphthoic acid] | – | – | – | – | > 256 | > 256 | > 256 | –
CC(C)CCC[C@@H](C)[C@H]1CC[C@H]2[C@@H]3CCC4=CC(=O)CC[C@]4(C)[C@H]3CC[C@]12C [Compound 29, Cholestenone] | – | – | – | – | > 256 | > 256 | > 256 | –
CC(C)CCC[C@@H](C)[C@H]1CC[C@H]2[C@@H]3CC[C@H]4CC(=O)CC[C@]4(C)[C@H]3CC[C@]12C [Compound 30, 5α-Cholestanone] | – | – | – | – | > 256 | > 256 | > 256 | –
CC[C@H](/C=C/[C@@H](C)[C@H]1CC[C@H]2[C@@H]3CCC4=CC(=O)CC[C@]4(C)[C@H]3CC[C@]12C)C(C)C [Compound 31, Stigmasterone] | – | – | – | – | > 256 | > 256 | > 256 | –
CC[C@H](C=C[C@@H](C)[C@H]1CC[C@H]2[C@@H]3CC(=O)C4=CC(=O)CC[C@]4(C)[C@H]3CC[C@]12C)C(C)C [Compound 32, Stigmasta-4,22-dien-3,6-dione] | – | – | – | – | > 256 | > 256 | > 256 | –
CC(C)[C@@H](C)/C=C/[C@@H](C)[C@H]1CC[C@@H]2[C@]1(C)CC[C@H]1[C@]23C=C[C@]2(C[C@@H](O)CC[C@]12C)OO3 [Compound 33, Ergosterol peroxide] | > 256 | > 256 | > 256 | > 256 | – | – | – | –
CC1=CCC2C(CC[C@@]2(C)O)C(C)(C)C1CC[C@@H]1[C@@]2(C)CCC(=O)C(C)(C)O[C@@H]2CC[C@]1(C)O (stereo partly drawn) [Compound 34, Sipholenone A] | > 256 | > 256 | > 256 | > 256 | – | – | – | –
CC1=CCC2C(CC[C@@]2(C)O)C(C)(C)C1CC[C@@H]1[C@@]2(C)CC[C@@H](O)C(C)(C)O[C@@H]2CC[C@]1(C)O (stereo partly drawn) [Compound 35, Sipholenol A] | > 256 | > 256 | > 256 | > 256 | – | – | – | –
CCCCCCCCCCC/C=C\CCCCC(=O)O [Compound 36, Petroselenic acid] | – | – | – | – | > 256 | > 256 | > 256 | –
Callysterol [Compound 28] | – | – | – | – | > 256 | > 256 | > 256 | –
